Test results as given in patent publication US8501722B2, “Methods and compositions for treating bacterial infection” (priority 2009, dated 2013).
“And” between values parts separate entries of the source, which are not always exact repeats. Equal entries are not always repeated. Where two headings read alike, the source gives them in different places.

Experiments:
SK(+)GAS = test: GAS growth by OD600 nm of culture; format: cell-based, Group A Streptococcus; conditions: for activity at 0.1 µg/mL / activity at 0.3 µg/mL / activity at 2.5 µg/mL / activity at 5 µg/mL / activity at 20 µg/mL / activity at 40 µg/mL / activity at 70 µg/mL / activity at 10 µg/mL / activity at 30 µg/mL / activity at 50 µg/mL / activity at 60 µg/mL: Streptococcus; for activity at 0.1 µg/mL: read-out: GAS Growth (% control), compound conc. 0.1 μg/ml; for activity at 0.3 µg/mL: read-out: GAS Growth (% control), compound conc. 0.3 μg/ml; for activity at 2.5 µg/mL: read-out: GAS Growth (% control), compound conc. 2.5 μg/ml; for activity at 5 µg/mL: read-out: GAS Growth (% control), compound conc. 5 μg/ml; for activity at 20 µg/mL: read-out: GAS Growth (% control), compound conc. 20 μg/ml; for activity at 40 µg/mL: read-out: GAS Growth (% control), compound conc. 40 μg/ml; for activity at 70 µg/mL: read-out: GAS Growth (% control), compound conc. 70 μg/ml; for activity at 10 µg/mL: read-out: GAS Growth (% control), compound conc. 10 μg/ml; for activity at 30 µg/mL: read-out: GAS Growth (% control), compound conc. 30 μg/ml; for activity at 50 µg/mL: read-out: GAS Growth (% control), compound conc. 50 μg/ml; for activity at 60 µg/mL: read-out: GAS Growth (% control), compound conc. 60 μg/ml

Description for streptokinase (SK): SK− Ecoli and SKCtr1's dose response relationship with these compounds were then examined.
The effects of 10 hit compounds out of the 23 identified were further tested by dose response assays. […] These compounds were tested for inhibition of ska expression by measuring SK activity in supernatants of GAS exposed to the test compound or control vehicle alone (DMSO). SK(+)GAS were cultured with hit compounds at a dose range of 10 nM to 100 μM at 37° C. for 16-20 hours. Supernatants of SK(+)GAS cultures were measured for SK activity using chromogenic substrate 2403 (Diapharma group Inc., West Chester, Ohio), according to the manufacturer's instruction and simultaneously monitored for nonspecific effects on GAS growth by measuring OD600 nm.
The positive compounds identified in dose response assays are subjected to SK assay to identify compounds inhibiting SK expression in SK(+)GAS. Briefly, SK(+)GAS is grown at the presence of hit compounds at a dose range determined by dose response assays within which SK(−) GAS growth is inhibited less than 10% while SKKanGAS growth is inhibited more than 50% under 20 μg/ml kanamycin.

Row | SMILES | activity at 0.1 µg/mL (SK(+)GAS) [%] | activity at 0.3 µg/mL (SK(+)GAS) [%] | activity at 2.5 µg/mL (SK(+)GAS) [%] | activity at 5 µg/mL (SK(+)GAS) [%] | activity at 20 µg/mL (SK(+)GAS) [%] | activity at 40 µg/mL (SK(+)GAS) [%] | activity at 70 µg/mL (SK(+)GAS) [%] | SK Expression (% control) (streptokinase (SK); compound conc. 0.1 μg/ml) | SK Expression (% control) (streptokinase (SK); compound conc. 0.3 μg/ml) | SK Expression (% control) (streptokinase (SK); compound conc. 1.0 μg/ml) | SK Expression (% control) (streptokinase (SK); compound conc. 3 μg/ml) | SK Expression (% control) (streptokinase (SK); compound conc. 10 μg/ml) | SK Expression (% control) (streptokinase (SK); compound conc. 30 μg/ml) | SK Expression (% control) (streptokinase (SK); compound conc. 60 μg/ml) | SK Expression (% control) (streptokinase (SK); compound conc. 5 μg/ml) | SK Expression (% control) (streptokinase (SK); compound conc. 40 μg/ml) | activity at 10 µg/mL (SK(+)GAS) [%] | SK Expression (% control) (streptokinase (SK); compound conc. 20 μg/ml) | further results
1 | C=CCn1c(SCc2ccccn2)nc2c(c1=O)C(C)(C)Cc1ccccc1-2 [CCG-203039, 3-Allyl-5,5-dimethyl-2-(pyridin-2-ylmethylthio)-5,6-dihydrobenzo[h]quinazolin-4(3H)-one] | 100 | 100 | 104 | 100 | 104 | 115 | 135 | 94 % control | 95 % control | 93 % control | 58 % control | 49 | 35 % control | 27 % control |  |  |  |  | 
2 | C=CCn1c(SCc2cccc(OC)c2)nc2c(c1=O)C1(CCCCC1)Cc1ccccc1-2 [CCG-102485, 3-allyl-2-(3-methoxybenzylthio)-3H-spiro[benzo[h]quinazoline-5,1′-cyclohexan]-4(6H)-one] |  |  |  | 102 |  | 104 |  |  |  |  |  |  |  |  | 81 % control | 91 |  |  | 
3 | C=CCn1c(SCCOC)nc2c(c1=O)C(C)(C)c1ccccc1-2 [CCG-203572, 3-allyl-2-(2-methoxyethylthio)-5,5-dimethyl-3H-indeno[1,2-d]pyrimidin-4(5H)-one] | 101 | 101 | 101 | 97 | 96 | 87 | 96 | 100 % control and 128 % control | 101 % control and 129 % control | 102 % control and 134 % control | 102 % control and 75 % control |  |  |  | 21 % control | 9 | 97 | 10 | GAS Growth (% control) (SK(+)GAS; compound conc. 0.3 μg/ml): 101 % control
4 | CCn1c(SCc2ccccc2)nc2c(c1=O)C1(CCCC1)Cc1ccccc1-2 [AK968] |  |  |  |  | 105 | 117 | 130 |  |  |  |  | 83 | 57 % control | 33 % control |  | 54 | 96 | 64 | activity at 30 µg/mL (SK(+)GAS): 112%; activity at 50 µg/mL (SK(+)GAS): 124%; activity at 60 µg/mL (SK(+)GAS): 123%; SK Expression (% control) (streptokinase (SK); compound conc. 50 μg/ml): 40 % control; SK Expression (% control) (streptokinase (SK); compound conc. 70 μg/ml): 45 % control
5 | C=CCn1c(SCCc2ccc(OC)cc2)nc2c(c1=O)C1(CCCCC1)Cc1ccccc1-2 [CCG-102489, 3-allyl-2-(4-methoxyphenethylthio)-3H-spiro[benzo[h]quinazoline-5,1′-cyclohexan]-4(6H)-one] |  |  |  | 106 |  | 114 |  |  |  |  |  |  |  |  | 91 % control | 79 |  |  | 
6 | C=CCn1c(SCc2ccc(NC(C)=O)cc2)nc2c(c1=O)C1(CCCCC1)Cc1ccccc1-2 [CCG-102491, N-(4-((3-allyl-4-oxo-4,6-dihydro-3H-spiro[benzo[h]quinazoline-5,1′-cyclohexane]-2-ylthio)methyl)phenyl)acetamide] |  |  |  | 109 |  | 112 |  |  |  |  |  |  |  |  | 85 % control | 96 |  |  | 
7 | C=CCn1c(NCC)nc2c(c1=O)C1(CCCCC1)Cc1ccccc1-2 [CCG-203043, 3-allyl-2-(ethylamino)-3H-spiro[benzo[h]quinazoline-5,1′-cyclohexan]-4(6H)-one] | 101 | 104 | 106 | 116 | 113 | 115 | 124 | 96 % control | 96 % control | 94 % control | 62 % control | 41 | 32 % control | 24 % control |  |  |  |  | 
8 | C=CCn1c(SCCOC)nc2c(c1=O)C1(CCCCC1)Cc1ccccc1-2 [CCG-102493, 3-allyl-2-(2-methoxyethylthio)-3H-spiro[benzo[h]quinazoline-5,1′-cyclohexan]-4(6H)-one] | 99 | 103 | 93 | 92 |  |  | 129 | 75 % control | 98 % control | 54 % control | 51 % control |  | 64 % control and 42 % control | 52 % control and 27 % control | 98 % control and 50 % control |  | 94 |  | activity at 30 µg/mL (SK(+)GAS): 110%; activity at 50 µg/mL (SK(+)GAS): 123%; activity at 60 µg/mL (SK(+)GAS): 125%; SK Expression (% control) (streptokinase (SK); compound conc. 2.5 μg/ml): 101 % control; SK Expression (% control) (streptokinase (SK); compound conc. 50 μg/ml): 49 % control; SK Expression (% control) (streptokinase (SK); compound conc. 70 μg/ml): 52 % control
9 | C=CCn1c(SCCN(C)C)nc2c(c1=O)C1(CCCCC1)Cc1ccccc1-2 [CCG-102495, 3-allyl-2-(2-(dimethylamino)ethylthio)-3H-spiro[benzo[h]quinazoline-5,1′-cyclohexan]-4(6H)-one] |  |  |  |  | 18 |  |  |  |  |  |  |  |  |  |  |  |  | 17 | 
10 | C=CCn1c(SCc2ccccc2)nc2c(c1=O)C(C)(C)Cc1ccccc1-2 [compound 25203] |  |  | 89 |  | 100 | 118 | 143 |  |  |  |  | 96 | 70 % control | 52 % control |  | 63 | 92 | 84 | activity at 30 µg/mL (SK(+)GAS): 110%; activity at 50 µg/mL (SK(+)GAS): 125%; activity at 60 µg/mL (SK(+)GAS): 132%; SK Expression (% control) (streptokinase (SK); compound conc. 2.5 μg/ml): 110 % control; SK Expression (% control) (streptokinase (SK); compound conc. 50 μg/ml): 58 % control; SK Expression (% control) (streptokinase (SK); compound conc. 70 μg/ml): 60 % control
11 | C=CCn1c(SC)nc2c(c1=O)C1(CCCCC1)Cc1ccccc1-2 [CCG-102620, 3-Allyl-2-(methylthio)-3H-spiro[benzo[h]quinazoline-5,1′-cyclohexan]-4(6H)-one] |  |  |  | 104 | 104 | 115 |  |  |  |  |  | 50 |  |  | 62 % control | 27 | 106 | 33 | 
12 | C=CCn1c(SCC(N)=O)nc2c(c1=O)C(C)(C)Cc1ccccc1-2 [CCG-203037, 2-(3-Allyl-5,5-dimethyl-4-oxo-3,4,5,6-tetrahydrobenzo[h]quinazolin-2-ylthio)acetamide] | 98 | 99 | 101 | 102 | 105 | 102 | 106 | 96 % control | 97 % control | 96 % control | 94 % control | 92 | 79 % control | 38 % control |  |  |  |  | 
13 | C=CCn1c(SCCOC)nc2c(c1=O)CC(C)c1ccccc1-2 (centres unmarked) [CCG-203574, 3-allyl-2-(2-methoxyethylthio)-6-methyl-5,6-dihydrobenzo[h]quinazolin-4(3H)-one] |  |  |  | 102 | 85 | 68 |  |  |  |  |  | 10 |  |  | 80 % control | 6 | 95 | 6 | 
14 | C=CCn1c(SCC(=O)OCC)nc2c(c1=O)C(C)(C)Cc1ccccc1-2 [1S-30398] |  |  |  | 98 | 99 | 111 |  |  |  |  |  | 36 |  |  | 42 % control | 39 | 98 | 38 | 
15 | C=CCn1c(SCc2ccc(OC)cc2)nc2c(c1=O)C1(CCCCC1)Cc1ccccc1-2 [CCG-102483, 3-allyl-2-(4-methoxybenzylthio)-3H-spiro[benzo[h]quinazoline-5,1′-cyclohexan]-4(6H)-one] |  |  |  | 104 |  | 115 |  |  |  |  |  |  |  |  | 119 % control | 80 |  |  | 
